Patent publication US11712483B2, “Activatable membrane-interacting peptides and methods of use” (priority 2013, dated 2023)
“Also recorded” adds a separate entry of the source. Where no end group is shown, it is not given here. Cy3 = cyanine3 fluorescent dye; Cy5 = cyanine5 fluorescent dye

Tests used:
[1] = target: T1, matriptase (Homo sapiens, UniProt Q9Y5Y6); assay: Selective activation in MDA-MB-231 cells, trypan blue, matriptase; assay type: cell-based; details: exogenous addition of different proteases
T1 sequence (Q9Y5Y6 615-855 limits assumed): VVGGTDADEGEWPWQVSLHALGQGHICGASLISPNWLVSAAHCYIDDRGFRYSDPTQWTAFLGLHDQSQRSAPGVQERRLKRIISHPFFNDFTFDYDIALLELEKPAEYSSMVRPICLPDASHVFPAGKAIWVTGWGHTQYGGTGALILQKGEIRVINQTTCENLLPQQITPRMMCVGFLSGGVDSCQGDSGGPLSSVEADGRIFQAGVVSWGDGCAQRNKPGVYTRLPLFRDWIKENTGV
Procedure: (§1) To examine the interaction of the promolecule and its activated form with cell membranes rather than artificial membranes, the promolecules were incubated with cells of the breast cancer cell line MDA-MB-231 (approximately 100,000 cells in a volume of […]) for 1 hour at 37° C. in Dulbecco's modified Eagle medium containing 1% fetal bovine serum, and cell viability was assessed using Trypan blue dye exclusion.
(§2) Cy5 fluorescent dye was conjugated to this promolecule via an N-terminal thiol (module X^1a) to create a promolecule having the structure X^1a-A-X^2—Z, and its interaction with HT29 cells was analyzed using fluorescence microscopy. In this experiment, cells were grown to confluence on glass bottom microwell dishes and the peptide (10 uM) incubated with the cells for between one to three hours and then washed for staining with fluorescently-labeled wheat germ agglutinin. After such staining the cells were covered in typical cell culture media and allowed to grow overnight for another round of imaging.

[2] = Intrinsic tryptophan fluorescence with liposomes or detergent micelles; assay type: binding
Text: Intrinsic fluorescence was used to characterize promolecules containing one or more tryptophan residues in portion A. As the spectral properties of tryptophan are dependent upon its local environment, this provides unequivocal definition of its partitioning into phospholipid membranes. In aqueous conditions, tryptophan typically emits light near 355 nm when excited with 285 nm light. In contrast, the emitted light is […] or lowered when the tryptophan of the peptide is present in an apolar environment, such as the interior of a phospholipid membrane, and produces a maximum emission wavelength typically in the range of 325 to 345 nm. Both the magnitude and wavelength of light emitted under this fluorescence assay are influenced by the properties of the peptide and the composition of the phospholipid membrane. […] A typical assay employed an 8 μM solution of promolecules and liposomes of defined size (100 nm in diameter, 0.5 mM) composed of phosphatidylserine or phosphatidylcholine or a combination thereof to test the influence of negatively charged or zwitterionic surfaces. […] Time-dependent measurement of the fluorescence emission spectra was used to characterize the activation of the promolecules by thrombin (2 nM) or by other proteases (10 nM or higher).

[3] = test system: HT29 cells; assay: Fluorescence microscopy of HT29 cells; assay type: cell-based
Procedure: as §2

[4] = test system: MDA-MB-231 cells; assay: Trypan blue dye exclusion, MDA-MB-231 cells; assay type: cell-based; details: 1 hour, 37° C.
Procedure: as §1

[5] = test system: blood clots formed in vitro; assay: Blood clots formed on glass slides; parameters: species or system bovine; details: for accumulation on actively clotting platelets / localization to blood clots: clots on glass slides, fluorescence microscopy; for accumulation on red blood cells: without activation
Procedure: Whole bovine blood was mixed at a ratio of 5:1 with a 10 nM solution of promolecules bearing the fluorescent dye Cy5. The mixture was then added to 1 uL of activated coagulation factor Xa (10 nM) and calcium chloride (10 mM) to initiate clot formation on the surface of a conventional microscopy slide. The mixture was then stirred with the tip of a plastic pipette for four minutes until a clot was formed. The clot was then pulled gently across the slide with the goal of flattening out the clot for better imaging. A coverslip was then placed on top of the slide and held in place by dabbing the corners with adhesive. The slide was then imaged within a few hours using an epifluorescence microscope (Nikon Eclipse Ti-E) bearing the appropriate filters for detection of the Cy5 dye.

[6] = test system: enteropeptidase or thrombin activity; assay: Fluorescence imaging in a subject, promolecule activated by either of two enzymes; assay type: in vivo; details: administered to a subject
Procedure: In order to activate this promolecule, either X^2a or X^2b must be cleaved, so that this promolecule is activated by either thrombin or enteropeptidase activity. The molecule is administered to a subject, and is cleaved in areas having enteropeptidase or thrombin activity, causing portion A to separate from portion Z and interact with membranes in the vicinity.

[7] = Förster resonance energy transfer (FRET) to fluorescent liposomes; assay type: binding; details: 100 nm liposomes, entirely PS
Procedure: Förster resonance energy transfer (FRET) relies upon the ability of light to be exchanged from one fluorescent moiety to another, which becomes possible only when the moieties are in close proximity to one another, typically less than about 30 Angstroms. Liposomes having similar composition to that used in the intrinsic fluorescence assays were prepared with 1% DiO, a lipid-soluble fluorescent compound whose fluorescence emission characteristics match the excitation wavelength of the promolecule when conjugated to […]. DiO-containing liposomes (1 μM) were mixed with Cy5 containing promolecules or activated peptide portions (20 nM), and the spectral characteristics of the mixture were determined. Cy3 was excited with 545 nm light, and the emission of Cy5 was measured over 650 to 700 nm. The activated peptide portions, but not the promolecules, enabled fluorescence energy transfer, which confirmed the observations made using intrinsic fluorescence.

[8] = target: thrombin (Homo sapiens, UniProt P00734); assay: Thrombin-mediated proteolysis by reverse phase HPLC; assay type: biochemical; details: digestion by thrombin, Michaelis-Menten
Procedure: Thrombin-mediated proteolysis of promolecules was performed by incubating the enzyme at concentrations ranging from 0.1 to 2 nM with a 20 to 100 μM solution of the promolecule at 37° C. for up to three or a full twenty-four hours to ensure completeness. The extent of proteolysis was assessed by reverse phase high-pressure liquid chromatography. Samples were run over a C18 column using an acetonitrile gradient of 20% to 80% over a period of 30 minutes. Complete hydrolysis was evident by the absence of the initial peak corresponding to the promolecule, and was further validated using mass spectrometry.

[9] = test system: mouse pancreatic duct carcinoma cells; assay: DRAQ7 exclusion, mouse pancreatic duct adenocarcinoma cells; assay type: cell-based; details: prolonged incubation, high micromolar concentrations, FIGS. 10 and 11
Procedure: DRAQ7 is a far-red fluorescent DNA dye that stains the nuclei of dead and permeabilized cells. Unlike trypan blue, it can be combined with other commonly used fluorophores, such as Oregon Green 488 and Cy5. Healthy cells exclude the dye, and no increase in fluorescence is observed. […] When complexed with double stranded DNA, the dye has a maximum excitation wavelength of 643 nm and a maximum emission wavelength of 694 nm. Cells incubated with the promolecule or the activated peptide form of the promolecule in the presence or absence of thrombin (5 nM) were exposed to DRAQ7 (3 μM) for at least 10 minutes and then imaged using two different approaches. In the first approach, the cells were mouse pancreatic duct adenocarcinoma cells, the incubation buffer contained wheat germ agglutinin conjugated with Oregon Green 488, and the cells were visualized with a Nikon Eclipse Ti-E bearing the appropriate filters. In the second approach, mouse X3 fibroblast cells bearing a modified Histone 2A gene fused to green fluorescent protein (GFP) were imaged using an Acumen Ex3—a commercially available confocal microscopy instrument specifically designed for high throughput, content rich and highly multiplexed data applicable to a wide range of biological assays.

[10] = in vivo
Procedure: In order to extend the circulating half-life of the promolecule, it is covalently linked to a molecule of polyethylene glycol (PEG) having a moleculer weight of 1,000 Daltons. The PEG-modified promolecule is administered to a subject and the circulating half-life is measured.

**Q.** Which “activation by matriptase (diminished trypan blue dye exclusion)” value [1] does the source give for “(Cy5)FVQWFSKFLGKLLKSRAEDEGLYDDD (Cy5-FVQWFSKFLGKLLKSRAEDEGLYDDD; not fully specified; printed as (Cy5)FVQWFSKFLGKLLKSRAEDEGLYDDD) [SEQ ID NO: 49, matriptase-cleavable promolecule; tested as A-X^2—Z and with Cy5 via N-terminal thiol]” here?
**A.** selectively activated by matriptase

**Q.** What about the “maximum emission wavelength / spectral properties, intrinsic tryptophan fluorescence” value ([2]; in presence of PC or PS liposomes or detergent micelles compared to buffer alone (PBS)) of the same substance?
**A.** undergo a limited change

**Q.** What about the “interaction with phospholipid membranes, intrinsic fluorescence” value ([2]; promolecule A-X^2—Z before activation) of the same substance?
**A.** moderate restricted interaction with phospholipid membranes

**Q.** What about the “fluorescent signal on cell surface” value ([3]; Cy5-conjugated promolecule, after co-incubation) of the same substance?
**A.** accumulated on the surface of the HT29 cells; also recorded: detectable on the surface of cells

**Q.** And the internalization into cells ([3]; after washing and further incubation (24 hours))?
**A.** internalized into the cells; also recorded: localized in punctate spheres inside the cells

**Q.** What about the “toxicity / cell death, trypan blue dye uptake” value [4] of the same substance?
**A.** Limited toxicity; also recorded: low toxicity; also recorded: did not

**Q.** With “Cy5-CFVQWFSKFLGKLLPRSFLLQDPNDQYEPFW [SEQ ID NO: 52]” as the substance, how does the “accumulation on actively clotting platelets / localization to blood clots” value [5] read?
**A.** intense accumulation of the activated peptide form of the promolecule; also recorded: localization of the membrane-interacting peptide-containing cleavage product to blood clots

**Q.** What about the “accumulation on red blood cells” value [5] of the same substance?
**A.** did not accumulate on red blood cells

**Q.** For “(Cy5)CFFWLSKIFPRDDDDKDD (Cy5-CFFWLSKIFPRDDDDKDD) [SEQ ID NO: 53]”, which “detection of Cy5 dye by fluorescence microscopy” value [6] is on record?
**A.** the Cy5 dye is detected in areas having enteropeptidase or thrombin activity

**Q.** For “(Cy3-K)ILGTILGLLKGLPRSFLLRNPNDKYEPFW (Cy3-KILGTILGLLKGLPRSFLLRNPNDKYEPFW; also: Cy3 conjugated to N-terminal Lys, attachment site not given here) [SEQ ID NO: 48, thrombin-cleavable promolecule with protonectin as portion A, Cy3 on N-terminal lysine]”, which “accumulation on actively clotting platelets / localization to blood clots” value [5] is on record?
**A.** intense accumulation of the active form of the promolecule; also recorded: localization of membrane-interacting peptide-containing cleavage products in blood clots

**Q.** What about the “accumulation on red blood cells” value [5] of the same substance?
**A.** did not accumulate on red blood cells

**Q.** What about the “FRET to DiO liposomes composed of phosphatidylserine (PS)” value [7] of the same substance?
**A.** do not associate closely enough with the PS liposomes to enable FRET

**Q.** What about the Km [8] of the same substance?
**A.** 0.2 µM

**Q.** For “FVQWFSKFLGKLLPRSFLLQDPNDQYEPFW [SEQ ID NO: 47]”, which “peptide-to-cell ratio at which cells did not exclude trypan blue or DRAQ7 (no longer viable)” value [9] is on record?
**A.** greater than 10^9 to one

**Q.** With “PEG-modified promolecule: SEQ ID NO: 52 covalently linked to polyethylene glycol of 1,000 Daltons (CFVQWFSKFLGKLLPRSFLLQDPNDQYEPFW; not fully specified (residue 1, N-terminus); printed as Cy5-CFVQWFSKFLGKLLPRSFLLQDPNDQYEPFW; also: PEG 1000 Da attached, site not given here)” as the substance, how does the “circulating half-life versus non-PEG-modified form” value [10] read?
**A.** longer circulating half-life than the non-PEG-modified form
